Like-named read-outs stand apart in the source and are kept apart here.

Experiment [1] deals with His-GST-TVMV-hRIPK1(1-324) (Homo sapiens (Human), UniProt Q13546). Briefly: RIPK1 HTRF Binding Assay. Conditions: HTRF binding, 1 h at rt; read-out: RIPK1 (IC50). The protocol:
A solution was prepared containing 0.2 nM Anti GST-Tb (Cisbio, 61GSTTLB), 90.6 nM probe and 1 nM His-GST-TVMV-hRIPK1(1-324) in FRET Buffer (20 mM HEPES, 10 mM MgCl2, 0.015% Brij-35, 4 mM DTT, 0.05 mg/mL BSA). Using Formulatrix Tempest, the detection antibody/enzyme/probe solution ([…]) was dispensed into wells of a 1536 plate (Black Low Binding Polystyrene 1536 Plate (Corning, 3724)) containing 10 nL of compounds of interest at appropriate concentration in DMSO. The plate was incubated at rt for 1 h. FRET was measured using the EnVision plate reader (Excitation: 340 nm, Emission: 520 nm/[…]). Total signal (0% inhibition) was calculated from wells containing 10 nL DMSO only.
The coding region of human RIPK1(1-324) flanked by NdeI site at 5′ end and stop codon TGA and XhoI site at 3′ end was codon optimized and gene synthesized at GenScript USA Inc. (Piscataway, N.J.) and subcloned into a modified pFastBacl vector (Invitrogen, Carlsbad, Calif.) with N-terminal His-GST-TVMV tag, to generate His-GST-TVMV-hRIPK1(1-324)-pFB. The fidelity of the synthetic fragment was confirmed by sequencing.

In experiment [2] the test system is MLKL phosphorylation in HT29-L23 human colorectal adenocarcinoma cells. Briefly: MLKL Phosphorylation High-Content Assay. The note with it: necroptosis induced with TNFα, SMAC mimetic and Z-VAD, 6 h, read-out: pMLKL (IC50). In kind it is cell-based. The protocol:
MLKL Phosphorylation High-Content Assay
HT29-L23 human colorectal adenocarcinoma cells were maintained in RPMI 1640 medium containing 10% heat-inactivated FBS, 1% Pennicilin-Streptomycin and 10 mM HEPES. Cells were seeded at 2,000 cells/well in 384 w tissue culture-treated microplates (Greiner #781090-3B) and incubated at 37° C. (5% CO2/95% O2) for two days. On the day of assay, the cells were treated with test compounds at final concentrations of 6.25 to 0.106 μM for 30 min at 37° C. (5% CO2/95% O2). Necroptopsis was induced using a mixture of human TNFα (35 ng/mL) (Peprotech #300-01A), SMAC mimetic (from US 2015/0322111 A1) (700 nM) and Z-VAD (140 nM) (BD pharmingen #51-6936). Following six hours incubation at 37° C. (5% CO2/95% O2), the cells were fixed with 4% formaldedye (ACROS 11969-0010) for 15 min at room temperature and then permeabilized with phoshpate buffered saline (PBS) containing 0.2% Triton-X-100 for 10 min. MLKL phosporylation was detected using anti-MLKL (phospho S358) antibody (Abcam # ab187091) (1:1000 dilution in Blocking Buffer [PBS supplemented with 0.1% BSA]) with overnight incubation at 4° C. After washing three times in PBS, goat anti-rabbit Alexa-488 (1:1000 dilution) (Life Technologies, A11008) and Hoechst 33342 (Life Technologies, H3570) (1:2000 dilution) in Blocking Buffer were added for 1 h at room temperature. Following another three cycles of washes in PBS, the microplates were sealed, and cellular images were acquired in the Cellomics ArrayScan VTI high-content imager equipped with an X1 camera. Fluorescent images were taken using a 10× objective and the 386-23 BGRFRN_BGRFRN and 485-20 BGRFRN_BGRFRN filter sets, for nuclei and MLKL phosphorylation, respectively. The image sets were analyzed using the Compartmental Analysis Bioapplication software (Cellomics). The level of MLKL phosphorylation was quantified as MEAN_CircRingAvgIntenRatio. […] The IC50 value was defined as the concentration of compound that produces 50% of the maximal inhibition. The data were fitted using the 4-parameter logistic equation to calculate the IC50 and Ymax values.

Sequence of His-GST-TVMV-hRIPK1(1-324) (Q13546 1-324): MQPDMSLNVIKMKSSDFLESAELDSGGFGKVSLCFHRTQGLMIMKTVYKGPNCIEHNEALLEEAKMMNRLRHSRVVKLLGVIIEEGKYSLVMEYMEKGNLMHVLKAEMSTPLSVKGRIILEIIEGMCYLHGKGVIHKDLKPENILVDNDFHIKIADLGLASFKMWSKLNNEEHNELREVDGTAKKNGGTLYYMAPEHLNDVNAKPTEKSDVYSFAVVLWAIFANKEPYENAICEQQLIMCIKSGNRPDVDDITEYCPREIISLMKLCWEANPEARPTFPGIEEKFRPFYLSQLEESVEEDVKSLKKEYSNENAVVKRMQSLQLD

As usually defined, the IC50 is the concentration at which inhibition is half-maximal. In the case of “5-{2-acetamidoimidazo[1,2-b]pyridazin- 6-yl}-N-{[2-fluoro-5- (trifluoromethoxy)phenyl]- (deutero)methyl}-2-methoxy-6- methylpyridine-3-carboxamide [Example 282]”, the IC50 came to 10 nM in experiment [1] and 8 nM in experiment [2].
Regarding “5-{2-acetamidoimidazo[1,2-b]pyridazin- 6-yl}-N-{[3-fluoro-5- (trifluoromethoxy)phenyl]methyl}-2,6- dimethylpyridine-3-carboxamide, TFA [Example 79]”, the IC50 in experiment [1] was 38 nM; in experiment [2] it was 46 nM.
As to `CC(=O)Nc1cn2nc(-c3cnc(C)c(C(=O)NC(C)c4cc(OC(F)(F)F)ccc4F)c3)ccc2n1` (single isomer, unassigned) [Example 9-1, 5-(2-acetamidoimidazo[1,2-b]pyridazin-6-yl)-N-(1-(2-fluoro-5-(trifluoromethoxy)phenyl)ethyl)-2-methylnicotinamide], the IC50 in experiment [1] and in experiment [2] (Homo sapiens) was 25 nM each time.
For the compound `CC(=O)Nc1cn2nc(-c3cnc(C)c(C(=O)N[C@H](C)c4cc(OC(F)(F)F)ccc4F)c3)ccc2n1` (single isomer, unassigned) [Example 9-2], the concentration for half-maximal inhibition (IC50) in experiment [1] was found to be 31 nM; in experiment [2] (Homo sapiens), 28 nM.
In the case of `[2H]C([2H])([2H])Oc1nc(C)c(-c2ccc3nc(NC(C)=O)cn3n2)cc1C(=O)NC(C)c1ccccc1OC(F)(F)F` (single isomer, unassigned) [Example 13-1, 5-{2-acetamidoimidazo[1,2-b]pyridazin-6-yl}-2-(D3)methoxy-6-methyl-N-{1-[2-(trifluoromethoxy)phenyl]ethyl}pyridine-3-carboxamide], the IC50 is 986 nM in experiment [1] and over 6250 nM in experiment [2].
The matching figures for `[2H]C([2H])([2H])Oc1nc(C)c(-c2ccc3nc(NC(C)=O)cn3n2)cc1C(=O)NC(C)c1ccccc1OC(F)(F)F` (single isomer, unassigned) [Example 13-2, 5-{2-acetamidoimidazo[1,2-b]pyridazin-6-yl}-2-(D3)methoxy-6-methyl-N-{1-[2-(trifluoromethoxy)phenyl]ethyl}pyridine-3-carboxamide]: 6 nM and 1 nM.
For the compound `CC(=O)Nc1cn2nc(-c3cnc(C)c(C(=O)N4CCCC(C(O)c5ccc(F)cc5)C4)c3)ccc2n1` (single isomer, unassigned) [Example 354, N-[6-(5-{3-[(4-fluorophenyl)(hydroxy)methyl]piperidine-1-carbonyl}-6-methylpyridin-3-yl)imidazo[1,2-b]pyridazin-2-yl]acetamide], the IC50 in experiment [1] was 212 nM; in experiment [2], 223 nM.
Take `CC(=O)Nc1cn2nc(-c3cnc(C)c(C(=O)N4CCCC(C(O)c5ccc(F)cc5)C4)c3)ccc2n1` (single isomer, unassigned) [Example 355, N-[6-(5-{3-[(4-fluorophenyl)(hydroxy)methyl]piperidine-1-carbonyl}-6-methylpyridin-3-yl)imidazo[1,2-b]pyridazin-2-yl] acetamide]: the IC50 in experiment [1] worked out at 223 nM; in experiment [2] it was 553 nM.
For the compound `CC(=O)Nc1cn2nc(-c3cnc(C)c(CNC(=O)c4cc(OC(F)(F)F)ccc4F)c3)ccc2n1` [Example 1, N-[(5-{2-acetamidoimidazo[1,2-b]pyridazin-6-yl}-2-methylpyridin-3-yl)methyl]-2-fluoro-5-(trifluoromethoxy)benzamide], the IC50 in experiment [1] amounted to 101 nM; in experiment [2] (Homo sapiens), 240 nM.
In the case of `[2H]C([2H])(NC(=O)c1cc(-c2ccc3nc(NC(=O)CO)cn3n2)cnc1OC)c1cc(F)cc(F)c1OC1CCOCC1` [Example 2, N-{[3,5-difluoro-2-(oxan-4-yloxy)phenyl](D2)methyl}-5-[2-(2-hydroxyacetamido)imidazo[1,2-b]pyridazin-6-yl]-2-methoxypyridine-3-carboxamide], the IC50 in experiment [1] worked out at 2 nM; in experiment [2] (Homo sapiens), 4 nM.
As to `COCC(=O)Nc1cn2nc(-c3cnc(OC)c(C(=O)NCc4ccccc4OC(F)(F)F)c3)ccc2n1` [Example 3, 2-methoxy-5-[2-(2-methoxyacetamido)imidazo[1,2-b]pyridazin-6-yl]-N-{[2-(trifluoromethoxy)phenyl]methyl}pyridine-3-carboxamide], the IC50 in experiment [1] was found to be 30 nM; in experiment [2] (Homo sapiens) it was 295 nM.
Turning to `CCC(=O)Nc1cn2nc(-c3cnc(OC)c(C(=O)NCc4cc(F)cc(F)c4OCC4CC4)c3)ccc2n1` [Example 4, N-{[2-(cyclopropylmethoxy)-3,5-difluorophenyl]methyl}-2-methoxy-5-{2-propanamidoimidazo[1,2-b]pyridazin-6-yl}pyridine-3-carboxamide], the IC50 in experiment [1] was 2 nM; in experiment [2] (Homo sapiens), 10 nM.
Turning to `COc1ncc(-c2ccc3nc(NC(=O)C(C)C)cn3n2)cc1C(=O)NCc1cc(F)cc(F)c1OCC1CC1` [Example 5, N-{[2-(cyclopropylmethoxy)-3,5-difluorophenyl]methyl}-2-methoxy-5-[2-(2-methylpropanamido)imidazo[1,2-b]pyridazin-6-yl]pyridine-3-carboxamide], the values for the IC50 in experiment [1] and in experiment [2] (Homo sapiens) were 7 nM and 11 nM, respectively.
On to `COc1ncc(-c2ccc3nc(NC(C)=O)c(C)n3n2)cc1C(=O)NCc1cc(OC(F)(F)F)ccc1F` [Example 6, 5-{2-acetamido-3-methylimidazo[1,2-b]pyridazin-6-yl}-N-{[2-fluoro-5-(trifluoromethoxy)phenyl]methyl}-2-methoxypyridine-3-carboxamide], for which the IC50 in experiment [1] was determined as 25 nM; in experiment [2] (Homo sapiens), 10 nM.
For the compound `COc1ncc(-c2ccc3nc(NC(=O)CC#N)cn3n2)cc1C(=O)NCc1cc(F)cc(F)c1OCC1CC1` [Example 7, 5-[2-(2-cyanoacetamido)imidazo[1,2-b]pyridazin-6-yl]-N-{[2-(cyclopropylmethoxy)-3,5-difluorophenyl]methyl}-2-methoxypyridine-3-carboxamide], the IC50 is 14 nM in experiment [1] and 38 nM in experiment [2] (Homo sapiens).
Regarding `COc1ncc(-c2ccc3nc(NC(=O)C(C)(C)C#N)cn3n2)cc1C(=O)NCc1cc(F)cc(F)c1OCC1CC1` [Example 8, 5-[2-(2-Cyano-2,2-dimethylacetamido)imidazo[1,2-b]pyridazin-6-yl]-N-{[2-(cyclopropylmethoxy)-3,5-difluorophenyl]methyl}-2-methoxypyridine-3-carboxamide], the IC50 in experiment [1] was determined as 39 nM; in experiment [2] (Homo sapiens) it was 41 nM.
Consider `CCC(=O)Nc1cn2nc(-c3cnc(OC)c(C(=O)NCc4cc(OC(F)(F)F)ccc4F)c3)ccc2n1` [Example 10, N-{[2-fluoro-5-(trifluoromethoxy)phenyl]methyl}-2-methoxy-5-{2-propanamidoimidazo[1,2-b]pyridazin-6-yl}pyridine-3-carboxamide], for which the IC50 in experiment [1] is 11 nM; in experiment [2] (Homo sapiens) it was 33 nM.
For `COc1ncc(-c2ccc3nc(NC(=O)C(C)C)cn3n2)cc1C(=O)NCc1cc(OC(F)(F)F)ccc1F` [Example 11, N-{[2-fluoro-5-(trifluoromethoxy)phenyl]methyl}-2-methoxy-5-[2-(2-methylpropanamido)imidazo[1,2-b]pyridazin-6-yl]pyridine-3-carboxamide], the IC50 turned out to be 20 nM in experiment [1] and 89 nM in experiment [2] (Homo sapiens).
Regarding `CC(=O)Nc1cn2nc(-c3cnc(Cl)c(C(=O)NCc4cc(OC(F)(F)F)ccc4F)c3)ccc2n1` [Example 12, 2-chloro-5-{2-acetamidoimidazo[1,2-b]pyridazin-6-yl}-N-{[2-fluoro-5-(trifluoromethoxy)phenyl]methyl}pyridine-3-carboxamide], the IC50 was 5 nM in experiment [1] and 27 nM in experiment [2] (Homo sapiens).

The values are drawn from patent US11440913B2, “Aminoimidazopyridazines as kinase inhibitors” (BRISTOL-MYERS SQUIBB COMPANY, priority 2017, dated 2022).
